Assay results from ChEMBL document CHEMBL2150935, “Synthesis, biological evaluation and chemometric analysis of indazole derivatives. 1,2-Disubstituted 5-nitroindazolinones, new prototypes of antichagasic drug” (Eur J Med Chem, 2012).

Assays:
[1] = Growth inhibition of mouse J774 cells at 256 uM after 24 hrs by resazurin reduction assay; assay type: cell-based; details: read-out: GI
[2] = Growth inhibition of mouse J774 cells at 128 uM after 24 hrs by resazurin reduction assay; assay type: cell-based; details: read-out: GI
[3] = system: Trypanosoma cruzi; assay: Growth inhibition of epimastigote form of Trypanosoma cruzi CL-B5 at 128 uM after 72 hrs by lacZ reporter gene assay; assay type: functional; details: CL-B5, 72 h, read-out: GI
[4] = system: Trypanosoma cruzi; assay: Growth inhibition of epimastigote form of Trypanosoma cruzi CL-B5 at 64 uM after 72 hrs by lacZ reporter gene assay; assay type: functional; details: CL-B5, 72 h, read-out: GI
[5] = system: Trypanosoma cruzi; assay: Growth inhibition of epimastigote form of Trypanosoma cruzi CL-B5 at 256 uM after 72 hrs by lacZ reporter gene assay; assay type: functional; details: CL-B5, 72 h, read-out: GI
[6] = Growth inhibition of mouse J774 cells at 64 uM after 24 hrs by resazurin reduction assay; assay type: cell-based; details: read-out: GI

O=c1c2cc([N+](=O)[O-])ccc2n(Cc2ccccc2)n1Cc1ccccc1
inhibition at 24 h, 256 µM [1]: 57.9%
inhibition at 24 h, 128 µM [2]: 64%
inhibition of growth at 128 µM [3]: 83.7%
inhibition of growth at 64 µM [4]: 74.5%
inhibition of growth at 256 µM [5]: 69.2%
inhibition at 24 h, 64 µM [6]: 9.77%

Cn1c2ccc([N+](=O)[O-])cc2c(=O)n1Cc1ccccc1
inhibition at 24 h, 256 µM [1]: 0%
inhibition at 24 h, 128 µM [2]: 29%
inhibition of growth at 128 µM [3]: 86%
inhibition of growth at 64 µM [4]: 83.3%
inhibition of growth at 256 µM [5]: 91.7%
inhibition at 24 h, 64 µM [6]: 15.2%

CCCCCn1c2ccc([N+](=O)[O-])cc2c(=O)n1Cc1ccccc1
inhibition at 24 h, 256 µM [1]: 81%
inhibition at 24 h, 128 µM [2]: 71.8%
inhibition of growth at 128 µM [3]: 90%
inhibition of growth at 64 µM [4]: 85.2%
inhibition of growth at 256 µM [5]: 90.2%
inhibition at 24 h, 64 µM [6]: 54.1%

Cn1c2ccc([N+](=O)[O-])cc2c(=O)n1Cc1ccc2ccccc2c1
inhibition at 24 h, 256 µM [1]: 0%
inhibition at 24 h, 128 µM [2]: 0%
inhibition of growth at 128 µM [3]: 40.9%
inhibition of growth at 64 µM [4]: 42.5%
inhibition of growth at 256 µM [5]: 37.7%
inhibition at 24 h, 64 µM [6]: 0%

CCCn1c2ccc([N+](=O)[O-])cc2c(=O)n1Cc1ccc2ccccc2c1
inhibition at 24 h, 256 µM [1]: 15.5%
inhibition at 24 h, 128 µM [2]: 11.9%
inhibition of growth at 128 µM [3]: 70.4%
inhibition of growth at 64 µM [4]: 78%
inhibition of growth at 256 µM [5]: 41.9%
inhibition at 24 h, 64 µM [6]: 0%

CC(C)n1c2ccc([N+](=O)[O-])cc2c(=O)n1Cc1ccc2ccccc2c1
inhibition at 24 h, 256 µM [1]: 0%
inhibition at 24 h, 128 µM [2]: 0%
inhibition of growth at 128 µM [3]: 13%
inhibition of growth at 64 µM [4]: 10.7%
inhibition of growth at 256 µM [5]: 24.2%
inhibition at 24 h, 64 µM [6]: 0%

Cn1c(=O)c2cc([N+](=O)[O-])ccc2n1C
inhibition at 24 h, 256 µM [1]: 0%
inhibition at 24 h, 128 µM [2]: 0%
inhibition of growth at 128 µM [3]: 42.8%
inhibition of growth at 64 µM [4]: 42.7%
inhibition of growth at 256 µM [5]: 68%
inhibition at 24 h, 64 µM [6]: 11.4%

Cn1c(=O)c2cc([N+](=O)[O-])ccc2n1-c1ccccc1
inhibition at 24 h, 256 µM [1]: 43.1%
inhibition of growth at 128 µM [3]: 19.4%
inhibition of growth at 64 µM [4]: 14.2%
inhibition of growth at 256 µM [5]: 26.6%

CC(C)Oc1c2cc([N+](=O)[O-])ccc2nn1Cc1ccccc1
inhibition at 24 h, 256 µM [1]: 41.4%
inhibition of growth at 128 µM [3]: 67.1%
inhibition of growth at 64 µM [4]: 56.2%
inhibition of growth at 256 µM [5]: 70.8%

CCCCOc1c2cc([N+](=O)[O-])ccc2nn1Cc1ccccc1
inhibition at 24 h, 256 µM [1]: 26.3%
inhibition of growth at 128 µM [3]: 48.5%
inhibition of growth at 64 µM [4]: 24.6%
inhibition of growth at 256 µM [5]: 54.7%

O=[N+]([O-])c1ccc2nn(Cc3ccccc3)c(OCc3ccccc3)c2c1
inhibition at 24 h, 256 µM [1]: 64.7%
inhibition at 24 h, 128 µM [2]: 15.2%
inhibition of growth at 128 µM [3]: 43.5%
inhibition of growth at 64 µM [4]: 51.8%
inhibition of growth at 256 µM [5]: 34.5%

COc1c2cc([N+](=O)[O-])ccc2nn1Cc1ccc2ccccc2c1
inhibition at 24 h, 256 µM [1]: 9.31%
inhibition of growth at 128 µM [3]: 35.6%
inhibition of growth at 64 µM [4]: 27%
inhibition of growth at 256 µM [5]: 72.5%

CC(C)Oc1c2cc([N+](=O)[O-])ccc2nn1Cc1ccc2ccccc2c1
inhibition of growth at 128 µM [3]: 76.6%
inhibition of growth at 64 µM [4]: 76.5%
inhibition of growth at 256 µM [5]: 63.7%
inhibition at 24 h, 64 µM [6]: 26.5%

COc1c2cc([N+](=O)[O-])ccc2nn1-c1ccccc1
inhibition of growth at 128 µM [3]: 0%
inhibition of growth at 64 µM [4]: 0%
inhibition of growth at 256 µM [5]: 2.81%

CC(C)Oc1c2cc([N+](=O)[O-])ccc2nn1-c1ccccc1
inhibition of growth at 128 µM [3]: 11.3%
inhibition of growth at 64 µM [4]: 20.7%
inhibition of growth at 256 µM [5]: 6.26%

Cn1nc(OCc2ccc3ccccc3c2)c2cc([N+](=O)[O-])ccc21
inhibition at 24 h, 128 µM [2]: 9%
inhibition of growth at 128 µM [3]: 23.6%
inhibition of growth at 64 µM [4]: 46.4%
inhibition of growth at 256 µM [5]: 11.3%
inhibition at 24 h, 64 µM [6]: 13.3%

COc1nn(-c2ccccc2)c2ccc([N+](=O)[O-])cc12
inhibition at 24 h, 256 µM [1]: 27.1%
inhibition of growth at 128 µM [3]: 40.3%
inhibition of growth at 64 µM [4]: 21.4%
inhibition of growth at 256 µM [5]: 56.3%

Cn1c2ccccc2c(=O)n1Cc1ccccc1
inhibition of growth at 128 µM [3]: 36.6%
inhibition of growth at 64 µM [4]: 28%
inhibition of growth at 256 µM [5]: 55.8%
